Values joined by “and” are separate entries in the source; they are usually repeats but may differ in a detail not shown here. Identical values can stand only once. Toxic doses and inconclusive results are not listed. Rule for the calls: active = survival T/C of 150% or more; inactive = T/C below 125% in these data.
System: CD2F1 mice, L1210 leukemia ip, survival T/C
Assay: NCI In Vivo Anticancer Drug Screen. Data for tumor model L1210 Leukemia (intraperitoneal) in CD2F1 (CDF1) mice
Settings: higher = longer survival
Method in brief: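 Tumor-bearing mice (transplanted tumor) were split into treated and vehicle control groups, and the measured endpoint of each treated group was divided by that of its vehicle controls.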

[1] = endpoint: mean survival time, dose: 12.5 mg/kg/injection, schedule: Q01DX009 (ip), vehicle: saline with Tween-80
[2] = endpoint: mean survival time, dose: 50.0 mg/kg/injection, schedule: Q01DX009 (ip), vehicle: saline with Tween-80
[3] = endpoint: mean survival time, dose: 100.0 mg/kg/injection, schedule: Q01DX009 (ip), vehicle: saline with Tween-80
[4] = endpoint: mean survival time, dose: 200.0 mg/kg/injection, schedule: Q01DX009 (ip), vehicle: saline with Tween-80
[5] = endpoint: mean survival time, dose: 100.0 mg/kg/injection, schedule: Q04DX003 (ip), vehicle: saline with Tween-80
[6] = endpoint: mean survival time, dose: 200.0 mg/kg/injection, schedule: Q04DX003 (ip), vehicle: saline with Tween-80
[7] = endpoint: mean survival time, dose: 400.0 mg/kg/injection, schedule: Q04DX003 (ip), vehicle: saline with Tween-80
[8] = endpoint: mean survival time, dose: 100.0 mg/kg/injection, schedule: Q01DX001 (ip), vehicle: saline with Tween-80
[9] = endpoint: mean survival time, dose: 200.0 mg/kg/injection, schedule: Q01DX001 (ip), vehicle: saline with Tween-80
[10] = endpoint: mean survival time, dose: 400.0 mg/kg/injection, schedule: Q01DX001 (ip), vehicle: saline with Tween-80
[11] = endpoint: mean survival time, dose: 400.0 mg/kg/injection, schedule: Q01DX009 (ip), vehicle: saline with Tween-80

Measured: T/C

Cc1nc(N)[nH]c(=O)c1NC(=O)c1ccc(N=[N+]=[N-])cc1
inactive: endpoint: mean survival time, dose: 12.5 mg/kg/injection, schedule: Q01DX001 (ip), vehicle: saline with Tween-80 90 % of control | [1] 89 % of control | endpoint: mean survival time, dose: 12.5 mg/kg/injection, schedule: Q04DX003 (ip), vehicle: saline with Tween-80 97 % of control | endpoint: mean survival time, dose: 25.0 mg/kg/injection, schedule: Q01DX001 (ip), vehicle: saline with Tween-80 95 % of control | endpoint: mean survival time, dose: 25.0 mg/kg/injection, schedule: Q01DX009 (ip), vehicle: saline with Tween-80 94 % of control | endpoint: mean survival time, dose: 25.0 mg/kg/injection, schedule: Q04DX003 (ip), vehicle: saline with Tween-80 97 % of control | endpoint: mean survival time, dose: 50.0 mg/kg/injection, schedule: Q01DX001 (ip), vehicle: saline with Tween-80 94 % of control | [2] 91 % of control | endpoint: mean survival time, dose: 50.0 mg/kg/injection, schedule: Q04DX003 (ip), vehicle: saline with Tween-80 96 % of control

O=S(=O)(O)c1ccccc1.O=S(=O)(O)c1ccccc1.[NH-]C1CCCCC1[NH-].[Pt+2]
inactive: endpoint: mean survival time, dose: 6.0 mg/kg/injection, schedule: Q04DX003 (ip), vehicle: other 119 % of control
active: endpoint: mean survival time, dose: 1.0 mg/kg/injection, schedule: Q01DX009 (ip), vehicle: dextrose 220 % of control | endpoint: mean survival time, dose: 1.0 mg/kg/injection, schedule: Q04DX003 (ip), vehicle: other 170 % of control | endpoint: mean survival time, dose: 2.0 mg/kg/injection, schedule: Q04DX003 (ip), vehicle: other 218 % of control | endpoint: mean survival time, dose: 4.0 mg/kg/injection, schedule: Q01DX001 (ip), vehicle: dextrose 155 % of control | endpoint: mean survival time, dose: 4.0 mg/kg/injection, schedule: Q04DX003 (ip), vehicle: dextrose 221 % of control | endpoint: mean survival time, dose: 6.0 mg/kg/injection, schedule: Q04DX003 (ip), vehicle: dextrose 200 % of control | endpoint: mean survival time, dose: 8.0 mg/kg/injection, schedule: Q01DX001 (ip), vehicle: dextrose 155 % of control | endpoint: mean survival time, dose: 8.0 mg/kg/injection, schedule: Q04DX003 (ip), vehicle: dextrose 191 % of control | endpoint: mean survival time, dose: 12.0 mg/kg/injection, schedule: Q01DX001 (ip), vehicle: dextrose 196 % of control | endpoint: mean survival time, dose: 16.0 mg/kg/injection, schedule: Q01DX001 (ip), vehicle: dextrose 152 % of control and 303 % of control | endpoint: mean survival time, dose: 24.0 mg/kg/injection, schedule: Q01DX001 (ip), vehicle: dextrose 262 % of control

O=C(NCc1ccccc1)C(Cc1ccccc1)(Cc1ccccc1)C(=O)NCc1ccccc1
inactive: [2] 102 % of control | [3] 97 % of control | [4] 93 % of control

OCP(CO)CO.[Cl][Hg][Cl]
inactive: endpoint: mean survival time, dose: 12.5 mg/kg/injection, schedule: Q04DX003 (ip), vehicle: saline 119 % of control | endpoint: mean survival time, dose: 25.0 mg/kg/injection, schedule: Q04DX003 (ip), vehicle: saline 116 % of control

COc1cc(OC)c(OC)cc1/C=C/c1ccc2ccccc2n1
inactive: [5] 92 % of control | [6] 96 % of control | [7] 96 % of control

CC(CC(C(=O)O)C(=O)O)C(=O)O (stereo not drawn)
inactive: endpoint: mean survival time, dose: 12.5 mg/kg/injection, schedule: Q01DX009 (ip), vehicle: water 93 % of control | endpoint: mean survival time, dose: 25.0 mg/kg/injection, schedule: Q01DX009 (ip), vehicle: water 93 % of control | endpoint: mean survival time, dose: 50.0 mg/kg/injection, schedule: Q01DX009 (ip), vehicle: water 93 % of control | endpoint: mean survival time, dose: 100.0 mg/kg/injection, schedule: Q01DX009 (ip), vehicle: water 91 % of control

ClCCN(Cc1ccccc1)Cc1ccccc1
inactive: endpoint: mean survival time, dose: 3.13 mg/kg/injection, schedule: Q01DX009 (ip), vehicle: saline with Tween-80 100 % of control | endpoint: mean survival time, dose: 6.25 mg/kg/injection, schedule: Q01DX009 (ip), vehicle: saline with Tween-80 102 % of control | [1] 96 % of control

c1ccc2c(c1)CC1Nc3ccccc3C21 (stereo not drawn)
inactive: [8] 97 % of control | [9] 97 % of control | [10] 96 % of control

CC(=O)n1c(COS(C)(=O)=O)nc2ccccc21
inactive: endpoint: mean survival time, dose: 25.0 mg/kg/injection, schedule: Q01DX001 (ip), vehicle: carboxymethylcellulose (CMC) 105 % of control | endpoint: mean survival time, dose: 50.0 mg/kg/injection, schedule: Q01DX001 (ip), vehicle: carboxymethylcellulose (CMC) 103 % of control

O=C(O)C(O)C(O)C(=O)O.[NH-]C1CCCCCC1[NH-].[Pt+2] (stereo not drawn)
active: endpoint: mean survival time, dose: 5.0 mg/kg/injection, schedule: Q04DX003 (ip), vehicle: dextrose 153 % of control | endpoint: mean survival time, dose: 20.0 mg/kg/injection, schedule: Q04DX003 (ip), vehicle: dextrose 152 % of control and 273 % of control
inactive: endpoint: mean survival time, dose: 2.5 mg/kg/injection, schedule: Q04DX003 (ip), vehicle: dextrose 123 % of control

OC1C2CC3C(C2)C13 (stereo not drawn)
inactive: [3] 102 % of control and 106 % of control | [4] 96 % of control | [11] 98 % of control and 102 % of control

O=C1c2ccccc2C(=O)c2c(NCCNCCO)ccc(O)c21
active: endpoint: mean survival time, dose: 7.5 mg/kg/injection, schedule: Q01DX009 (ip), vehicle: saline 193 % of control | endpoint: mean survival time, dose: 15.0 mg/kg/injection, schedule: Q01DX009 (ip), vehicle: saline 151 % of control | endpoint: mean survival time, dose: 40.0 mg/kg/injection, schedule: Q01DX009 (ip), vehicle: suspension in saline 156 % of control | endpoint: median survival time, dose: 20.0 mg/kg/injection, schedule: Q01DX009 (ip), vehicle: suspension in saline 150 % of control | endpoint: median survival time, dose: 40.0 mg/kg/injection, schedule: Q01DX009 (ip), vehicle: suspension in saline 153 % of control and 155 % of control | endpoint: median survival time, dose: 80.0 mg/kg/injection, schedule: Q01DX009 (ip), vehicle: suspension in saline 158 % of control and 183 % of control
inactive: endpoint: mean survival time, dose: 1.25 mg/kg/injection, schedule: Q01DX009 (ip), vehicle: suspension in saline 100 % of control | endpoint: mean survival time, dose: 2.5 mg/kg/injection, schedule: Q01DX009 (ip), vehicle: suspension in saline 101 % of control and 112 % of control | endpoint: mean survival time, dose: 5.0 mg/kg/injection, schedule: Q01DX009 (ip), vehicle: suspension in saline 113 % of control and 103 % of control | endpoint: mean survival time, dose: 10.0 mg/kg/injection, schedule: Q01DX009 (ip), vehicle: suspension in saline 118 % of control and 101 % of control | endpoint: mean survival time, dose: 20.0 mg/kg/injection, schedule: Q01DX009 (ip), vehicle: suspension in saline 112 % of control | endpoint: median survival time, dose: 5.0 mg/kg/injection, schedule: Q01DX009 (ip), vehicle: suspension in saline 123 % of control and 110 % of control | endpoint: median survival time, dose: 10.0 mg/kg/injection, schedule: Q01DX009 (ip), vehicle: suspension in saline 115 % of control

Cc1cccc(C)c1N=C(NO)c1ccccc1
inactive: endpoint: mean survival time, dose: 100.0 mg/kg/injection, schedule: Q01DX001 (ip), vehicle: saline 102 % of control | endpoint: mean survival time, dose: 100.0 mg/kg/injection, schedule: Q04DX003 (ip), vehicle: saline 106 % of control | endpoint: mean survival time, dose: 200.0 mg/kg/injection, schedule: Q01DX001 (ip), vehicle: saline 100 % of control | endpoint: mean survival time, dose: 200.0 mg/kg/injection, schedule: Q04DX003 (ip), vehicle: saline 112 % of control | endpoint: mean survival time, dose: 400.0 mg/kg/injection, schedule: Q01DX001 (ip), vehicle: saline 90 % of control | endpoint: mean survival time, dose: 400.0 mg/kg/injection, schedule: Q04DX003 (ip), vehicle: saline 100 % of control

CCCCCCCCCCC(=O)CCCC
inactive: [5] 98 % of control | [6] 94 % of control | [7] 100 % of control

CN(C)[C@@H]1C(=O)C(C(=O)NCN2CCN(C(=N)N=C(N)N)CC2)=C(O)[C@@]2(O)C(=O)C3=C(O)c4c(O)cccc4[C@@](C)(O)[C@H]3C[C@@H]12
inactive: endpoint: mean survival time, dose: 1.25 mg/kg/injection, schedule: Q01DX001 (ip), vehicle: saline 111 % of control | endpoint: median survival time, dose: 0.31 mg/kg/injection, schedule: Q01DX009 (ip), vehicle: saline 107 % of control | endpoint: median survival time, dose: 0.62 mg/kg/injection, schedule: Q01DX009 (ip), vehicle: saline 110 % of control | endpoint: median survival time, dose: 1.25 mg/kg/injection, schedule: Q01DX009 (ip), vehicle: saline 103 % of control | endpoint: median survival time, dose: 2.0 mg/kg/injection, schedule: Q01DX009 (ip), vehicle: saline 109 % of control | endpoint: median survival time, dose: 5.0 mg/kg/injection, schedule: Q01DX009 (ip), vehicle: saline 87 % of control

COCc1nccc2c1[nH]c1ccccc12
inactive: [3] 92 % of control | [4] 110 % of control | [11] 107 % of control

C=CC[n+]1cccc2ccccc21
inactive: [5] 111 % of control

Nc1ncnc2c1ncn2CCCCCO
inactive: [8] 96 % of control | [9] 91 % of control | [10] 91 % of control

O=C(O)CCC1CC(=O)OC12CCCCC2 (stereo not drawn)
inactive: [8] 96 % of control | [9] 96 % of control | [10] 91 % of control

Cc1cc(C)c(C(=O)C(=S)N2CCOCC2)c(C)c1
inactive: endpoint: mean survival time, dose: 100.0 mg/kg/injection, schedule: Q04DX003 (ip), vehicle: acetone 98 % of control | endpoint: mean survival time, dose: 200.0 mg/kg/injection, schedule: Q04DX003 (ip), vehicle: acetone 104 % of control | endpoint: mean survival time, dose: 400.0 mg/kg/injection, schedule: Q04DX003 (ip), vehicle: acetone 93 % of control
